Measurements taken from publication PMC11019550, “Potent Inhibition of E. coli DXP Synthase by a gem-Diaryl Bisubstrate Analog” (ACS Infectious Diseases, 2024).

Columns and labels:
EcDXPS = biological target: T1, EcDXPS (Escherichia coli, UniProt P77488); test: DXPS-IspC coupled assay, apparent Ki on wildtype EcDXPS; type: biochemical; conditions: for Ki: read-out: Ki^app; for fold change in Ki^app relative to 1: relative to compound 1; for fold increase in Ki^app relative to 8: relative to compound 8
T1 construct: made in house
Protocol: To determine inhibitor potency, we used the DXPS-DXP reductoisomerae (DXPS-IspC) coupled assay to measure the activity of recombinant purified EcDXPS[24],[25],[31],[44],[50] in the presence of inhibitors. Reactions were initiated by the addition of substrates following a short preincubation of the inhibitor with enzymes, and initial velocities were determined by monitoring reduced nicotinamide adenine dinucleotide phosphate (NADPH) absorbance at 340 nm. Apparent Ki values were determined by fitting initial velocity data to the Morrison equation,[64],[65] which accounts for the tight-binding nature (Ki^app/[E]total < 10)[66] of inhibitors included in this study and allows for rigorous comparison of inhibitor potencies. […] Inhibitor activities were rationalized based on the predictions made from molecular docking of the corresponding PLThDP adducts into the DXPS active site.
All compounds in this study were evaluated as DXPS inhibitors using the DXPS-IspC coupled assay as previously reported.[24] […] The DXPS reaction was initiated by the addition of substrates (50 μM pyruvate and 500 μM D-GAP). The initial rate of depletion of NADPH was monitored at 340 nm and was used to calculate the initial rate of DXP formation in the presence or absence of inhibitor. Initial rates of DXP formation were plotted as a function of [inhibitor], and Ki^app was determined by fitting the data to the Morrison equation (eq 1)[64],[65] in GraphPad Prism. This approach was deemed appropriate as the concentration of free inhibitor cannot be assumed to remain constant for most of these analogs in which Ki^app values approach the concentration of DXPS.[88],[89] Error is reported as standard deviation from three replicates. Active enzyme concentration ([E]T) was determined following Copeland’s method using 8 (Figure S2B).[88]
The coupled assay was initiated by adding 20 μL of a 10× substrate stock to the preincubated E + I mixture to give a final volume of 200 μL. The final concentration of D-GAP was held constant at 500 μM, and [pyruvate] was added to final concentrations between 0 and 250 μM. The initial rate of NADPH depletion in the IspC-coupled reaction was monitored at 340 nm and was used to calculate the initial rate of DXP formation in the presence or absence of inhibitor. Initial rates were plotted as a function of [pyruvate]. […] Model discrimination analysis employing the Akaike information criterion was performed as well as Lineweaver–Burk analysis to determine the mixed model as the best fit. In all cases, error bars represent the standard deviation from three replicates.

[1] = tested on: porcine pyruvate dehydrogenase (PDH) E1 subunit; test: Inhibition of porcine pyruvate dehydrogenase (PDH); type: biochemical; conditions: DXPS over porcine PDH
Text: As noted, DXPS has a large active site and follows a mechanism requiring ternary complex formation, distinct from other ThDP-dependent pyruvate decarboxylases. We hypothesized that the sterically demanding scaffold of 8, predicted to engage both substrate binding sites, should display selectivity for DXPS. In a preliminary assessment, we tested 8 as an inhibitor of porcine pyruvate dehydrogenase (PDH) E1 subunit. […] For comparison, the selectivity ratio for 1 was estimated to be >15,000-fold for DXPS over porcine PDH.
Figure S5. Evaluation of inhibitory activity of 8 against mammalian porcine pyruvate dehydrogenase (PDH). Porcine PDH (0.01 U/mL) and inhibitor (8 or MAP positive control) were preincubated for 10 minutes at 25 °C in enzyme buffer (2 mM MgCl2, 5 mM L-cysteine, 1 mM ThDP, 300 μM TCEP, 100 mM HEPES pH 8, 2.5 mM NAD +, and 100 μM coenzyme A). The reaction was initiated by addition of pyruvate (60 μM). The change in absorbance at 340 nm over time was measured and used to calculate the initial rate of NADH formation. The % activity of PDH in the presence of 8 or MAP was plotted using GraphPad Prism version 9. There is 21% inhibition of PDH activity observed in the presence of compound 8 at a concentration of 1 mM.
Experiments were performed in triplicate. Error bars represent standard error.
Figure S6. Replicate progress curves for DXP formation in the presence or absence of inhibitors 8 or 10 with EcDXPS. A) Progress curves for formation of DXP in the presence of 8 display time-dependence of inhibition. B) Progress curves for formation of DXP in the presence of descarboxyl […]

WT EcDXPS [2] = biological target: T2, WT EcDXPS (Escherichia coli, UniProt P77488); test: Circular dichroism titration (PLThDP formation, apparent KD) on WT EcDXPS; type: binding
T2 construct: made in house
Text: The X-ray structure obtained from cocrystallization of DrDXPS with 1 (Figure 2) indicates the formation of the PLThDP adduct by reaction of the acetylphosphonate mimic of pyruvate with the C2 carbanion of ThDP. We reasoned that 8 should also engage the pyruvate binding site and react with ThDP to form a PLThDP adduct. Circular dichroism (CD) is a powerful tool that can be used to detect LThDP and LThDP-like adducts on thiamin-dependent enzymes,[56],[67]−[75] including DXPS.[31],[36],[43],[44],[49]−[52],[76] DXPS bound to ThDP (E-ThDP) is characterized by a CD λmin at 320 nm, indicative of the 4′-aminopyrimidine (AP) tautomer of ThDP (Figure 8A). Upon addition of pyruvate to E-ThDP, a new positive signal emerges at 313 nm, indicating the formation of LThDP in its 1′,4′-iminopyrimidine (IP) form. Similarly, upon addition of AP-based inhibitors to E-ThDP, the E-PLThDP adduct is formed, characterized by an increasing, broad CD signal.[69],[77],[78] Determination of apparent KD of PLThDP by plotting the CD signal corresponding to PLThDP versus [MAP] has been used as a proxy for PLThDP affinity.[77],[78] To confirm that 8 reacts with ThDP to form PLThDP in the DXPS active site, the change in CD signal upon addition of 8 (0.25–30 μM) to EcDXPS (30 μM) was measured. […] Plotting the CD signal at 294 nm versus affords a curve that approaches the limiting asymptotes defined by infinitely tight binding (Figure 8C),[79],[80] which is expected for this nanomolar inhibitor under the conditions of high [DXPS] required for this method. Since in this case [DXPS] ≫ KD^app, an accurate determination of KD^app is not possible, and data were fit to a quadratic equation to give an estimated upper limit for the value of KD^app (≤0.04 ± 0.01 μM). Addition of 10 to DXPS also results in an increased, broad CD signal (Figure S7A), indicating PLThDP formation. […]
CD titrations of 8 and 10 onto WT, R99A, and R478A EcDXPS variants were conducted at 25 °C under aerobic conditions in 1.5 mL solutions containing 30 μM EcDXPS in 50 mM HEPES pH 8, 100 mM NaCl, 1 mM MgCl2, and 0.2 mM ThDP. […] The CD signals at 294 nm determined from the difference spectra obtained by subtracting the signal of E-ThDP at 294 nm were plotted as a function of [inhibitor] and fit to (1) the quadratic equation described in eq 2 (8 on WT DXPS), where E is the concentration of DXPS taking into account stoichiometric binding and CDmax is the maximal CD signal, or (2) a one-site specific binding curve (all other experiments) using GraphPad Prism Version 9 to calculate an apparent KD. Experiments were conducted in triplicate and the standard error was calculated. […]
At the conclusion of the titration described above, the CD signal at 313 nm (previously characterized for LThDP) was recorded. […]

R99A EcDXPS = biological target: T3, R99A EcDXPS (Escherichia coli, UniProt P77488, R99A); test: Circular dichroism titration (PLThDP formation, apparent KD) on R99A EcDXPS; type: binding
T3 construct: made in house
Protocol: (§1) CD titrations of 8 and 10 onto WT, R99A, and R478A EcDXPS variants were conducted at 25 °C under aerobic conditions in 1.5 mL solutions containing 30 μM EcDXPS in 50 mM HEPES pH 8, 100 mM NaCl, 1 mM MgCl2, and 0.2 mM ThDP. Scans were obtained from 280 to 400 nm with a 0.5 s averaging time and 1 nm step following a titration of inhibitor (8: 0.25–30 μM on WT, 0.5–30 μM on R99A and R478A; 10 2.5–30 μM on WT, R99A, and R478A), with a 5 min preincubation of inhibitor with DXPS prior to scanning. […] The CD signals at 294 nm determined from the difference spectra obtained by subtracting the signal of E-ThDP at 294 nm were plotted as a function of [inhibitor] and fit to (1) the quadratic equation described in eq 2 (8 on WT DXPS), where E is the concentration of DXPS taking into account stoichiometric binding and CDmax is the maximal CD signal, or (2) a one-site specific binding curve (all other experiments) using GraphPad Prism Version 9 to calculate an apparent KD. Experiments were conducted in triplicate and the standard error was calculated. [drawing 2] 2
(§2) At the conclusion of the titration described above, the CD signal at 313 nm (previously characterized for LThDP) was recorded. Pyruvate (1 mM) was then added to the mixture, and a CD scan of the resulting solution was conducted as described above, to detect shifts in the CD spectrum that may correlate to LThDP formation. Experiments were conducted in triplicate.

R478A EcDXPS = biological target: T4, R478A EcDXPS (Escherichia coli, UniProt P77488, R478A); test: Circular dichroism titration (PLThDP formation, apparent KD) on R478A EcDXPS; type: binding
T4 construct: made in house
Protocol: as §1, §2

WT EcDXPS [3] = biological target: T2, WT EcDXPS; test: Time-dependent inhibition, reaction progress curves on WT EcDXPS; type: biochemical; conditions: 8 at 400 or 800 nM, 10 at 1 or 100 μM
Protocol: To determine if 8 is also a slow-onset inhibitor of DXPS, reaction progress was monitored upon simultaneous addition of substrates (pyruvate and D-GAP) in the presence or absence of inhibitor. In the absence of inhibitor, the reaction progress curve is linear. […] To assess the importance of the carboxyl group of 8, we evaluated descarboxy analog 10 in the same manner.
EcDXPS (100 nM) and IspC (2 μM) were preincubated in enzyme reaction buffer (100 mM HEPES pH 8, 2 mM MgCl2, 5 mM NaCl, 1 mM ThDP, and 200 μM NADPH) with 250 μM D-GAP for 10 min at 25 °C. The reaction was initiated by the addition of pyruvate (1 mM) and inhibitor (400 nM and 800 nM 8; 1 μM and 100 μM 10). The reaction mixture was incubated at 25 °C, and the absorbance of NADPH at 340 nm was monitored. The change in the absorbance of NADPH over time was used to calculate [DXP] (μM) produced over time. Experiments were performed in triplicate.

| Compound | Ki (EcDXPS) | fold change in Ki^app relative to 1 (EcDXPS) | other results |
| --- | --- | --- | --- |
| CC(=O)P(=O)(O)OCCc1cn([C@H](Cc2ccccc2)C(=O)O)nn1 [Compound 1, D-PheTrAP] | 0.26 ± 0.03 µM | – | estimated selectivity ratio for DXPS over porcine PDH [1]: > 15,000 fold |
| CC(=O)P(=O)(O)OCCc1cn([C@H](Cc2ccc(-c3ccccc3)cc2)C(=O)O)nn1 [Compound 2] | 8 ± 1 µM | 30 fold | – |
| CC(=O)P(=O)(O)OCCc1cn([C@H](Cc2ccc(OCc3ccccc3)cc2)C(=O)O)nn1 [Compound 3] | 4.9 ± 0.6 µM | 19 fold | – |
| CC(=O)P(=O)(O)OCCc1cn([C@H](COCc2ccccc2)C(=O)O)nn1 [Compound 4] | 1.42 ± 0.05 µM | ~5 fold | – |
| CC(=O)P(=O)(O)OCCc1cn([C@@H](C(=O)O)c2ccccc2)nn1 [Compound 5] | 2.1 ± 0.2 µM | 8 fold | – |
| CC(=O)P(=O)(O)OCCc1cn([C@@H](C(=O)O)C(c2ccccc2)c2ccccc2)nn1 [Compound 6] | 0.57 ± 0.12 µM | – | – |
| CC(=O)P(=O)(O)OCCc1cn([C@H](Cc2cccc3ccccc23)C(=O)O)nn1 [Compound 7] | 0.6 ± 0.06 µM | – | – |
| CC(=O)P(=O)(O)OCCc1cn(C(Cc2ccccc2)Cc2ccccc2)nn1 [Compound 10] | 11 ± 1 µM | – | fold increase in Ki^app relative to 8 (EcDXPS): ~3800 fold; Kd (WT EcDXPS [2]): 9 ± 1 µM; change in PLThDP CD signal upon addition of 1 mM pyruvate (WT EcDXPS [2]; WT EcDXPS 30 μM, inhibitor 30 μM): CD signal shift and an increase in amplitude; Kd (R99A EcDXPS): 14.5 ± 0.7 µM; Kd (R478A EcDXPS): 6 ± 1 µM; time dependence of inhibition (progress curve for DXP formation) (WT EcDXPS [3]): linear |
| COC(=O)C(Cc1ccccc1)(Cc1ccccc1)n1cc(CCOP(=O)(O)C(C)=O)nn1 [Compound 11] | 2.9 ± 0.5 µM | – | fold increase in Ki^app relative to 8 (EcDXPS): 1000 fold |
| CC(=O)P(=O)(O)OCCc1cn(C2(C(=O)O)Cc3ccccc3C2)nn1 [Compound 12] | 0.29 ± 0.04 µM | – | – |
